Where a name gives a salt, the structure may show the parent alone.
Assays:
delta-5-desaturase [1] = biological target: T1, delta-5-desaturase (Rattus norvegicus, UniProt Q920R3); assay: Delta-5-desaturase inhibitory activity using rat liver microsome; type: biochemical; conditions: test compound 10 μM
T1 construct: a rat liver microsome fraction (10 μl) diluted to 3 mg/ml with a microsome buffer; from tissue; host or cells: rat liver microsome fraction
Experimental: Delta-5-Desaturase Inhibitory Activity Using Rat Liver Microsome
The inhibitory activity of the test compound on delta-5-desaturase was measured by the method described below. To a solution of the test compound in DMSO prepared in advance was secondarily diluted with a buffer (300 mM NaH2PO4 [pH 7.4], 450 mM KCl, 30 mM NaF, 9 mM MgCl2, 4.5 mM glutathione [reduced form], 0.3% BSA [fatty acid free, SIGMA]) to give an assay buffer. The assay buffer (10 μl) was dispensed to a polypropylene deep 96-well block, and a rat liver microsome fraction (10 μl) diluted to 3 mg/ml with a microsome buffer (10 mM Tris-HCl [pH 7.4], 1 mM EDTA, 250 mM sucrose) was added. The enzyme reaction was started by adding 9 mM NADH, 9 mM ATP, 0.9 mM CoA, 10 μCi/ml (8E,11E,14E)-(1-^14C)eicosa-8,11,14-trienoic acid (PerkinElmer Inc.) (10 μl). The enzyme reaction was performed for 120 min at room temperature, and discontinued by the addition of 10 μl of 2.5M NaOH. After discontinuation of the reaction, the plate was sealed and incubated overnight at 55° C. to allow saponification. The fatty acid was extracted with solvent based on the Bligh & Dyer method described in Can. J. Biochem. Physiol., vol. 37, page 911 (1959) by adding formic acid:methanol:chloroform (1:6:3) (200 μl), maintaining the single layer state, sufficiently stirring the mixture and adding pure water (120 μl) for separation into two layers. The lower chloroform layer (10 μl) was spotted on a reversed-phase TLC plate (RP-18, 1154230001, Merck Japan, Ltd.), developed with acetonitrile:pure water:acetic acid (95:4.5:0.5), and the dried TLC plate was transcribed on Imaging Plate (Fuji Photo Film Co., Ltd.) for 5 hr or longer. The detection was performed using BAS-5000 (Fuji Photo Film Co., Ltd.), and the obtained spot image was numerically converted by Multi Gauge Ver2.3 (Fuji Photo Film Co., Ltd.) and a delta-5-desaturase inhibitory rate (%) of 10 μM test compound was determined.

delta-5-desaturase [2] = biological target: T1, delta-5-desaturase; assay: Inhibitory activity on binding of [3H]-labelled Reference Example 1 ligand to delta-5-desaturase (rat liver microsome fraction); conditions: test compound 10 μM; for inhibition at 10 µM: 3 nM tritiated ligand of Reference Example 1, read-out: Binding inhibitory activity against compound bind to delta-5-desaturase Binding inhibition rate (%) at 10 μM
Experimental: Inhibitory Activity on Binding of N-[2-({4-oxo-3-[4-(2,2,2-trifluoroethoxy)[2,6-^3H2]phenyl]-3,4-dihydrothieno[3,4-d]pyrimidin-2-yl}sulfanyl)ethyl]acetamide (Reference Example 1) to delta-5-desaturase)
All tests were performed at room temperature at 200 μL/well. A rat liver microsome fraction (30 μg/well) was preincubated with a test compound at a final concentration of 10 μM for 15 min in an assay buffer (10 mM Tris-HCl (pH 7.5), 100 mM KCl, 10 mM NaF, 3 mM MgCl2, 0.005% Tween20 and 1 mM GSH). N-[2-({4-oxo-3-[4-(2,2,2-trifluoroethoxy) [2,6-^3H2]phenyl]-3,4-dihydrothieno[3,4-d]pyrimidin-2-yl}sulfanyl)ethyl]acetamide was added to a final concentration of 3 nM and the mixture was incubated for 150 min. For Bound/Free separation, the membrane fraction was added on a GF/C glass filter using a cell harvester. The GF/C glass filter was washed 5 times with 300 μl of ice-cooled assay buffer (without 0.005% Tween) to separate the ligand bound to delta-5-desaturase. 50 μl of MicroScinti 0 was added, and the radioactivity on the filter was measured by TopCount. To evaluate non-specific binding, 10 μM N-[2-({4-oxo-3-[4-(2,2,2-trifluoroethoxy)phenyl]-3,4-dihydrothieno[3,4-d]pyrimidin-2-yl}sulfanyl)ethyl]acetamide was used. The inhibitory rate (%) of the test compound (10 μM) on the binding of N-[2-({4-oxo-3-[4-(2,2,2-trifluoroethoxy) [2,6-^3H2]phenyl]-3,4-dihydrothieno[3,4-d]pyrimidin-2-yl}sulfanyl)ethyl]acetamide to delta-5-desaturase was determined.

delta-5-desaturase [3] = biological target: T2, delta-5-desaturase (Mus musculus, UniProt Q920L1); assay: Delta-5-desaturase inhibitory action in vivo (liver AA/DGLA ratio in mice); conditions: 3 mg/kg by gavage for 4 days; male C57BL/6J mice; liver phospholipid fraction; solvent administration group as 100%
T2 construct: the mice were anesthetized, and the liver was isolated; tissue CLEA Japan, Inc; host or cells: liver of C57BL/6J mice (in vivo dosing)
T2 sequence (Q920L1 1-447): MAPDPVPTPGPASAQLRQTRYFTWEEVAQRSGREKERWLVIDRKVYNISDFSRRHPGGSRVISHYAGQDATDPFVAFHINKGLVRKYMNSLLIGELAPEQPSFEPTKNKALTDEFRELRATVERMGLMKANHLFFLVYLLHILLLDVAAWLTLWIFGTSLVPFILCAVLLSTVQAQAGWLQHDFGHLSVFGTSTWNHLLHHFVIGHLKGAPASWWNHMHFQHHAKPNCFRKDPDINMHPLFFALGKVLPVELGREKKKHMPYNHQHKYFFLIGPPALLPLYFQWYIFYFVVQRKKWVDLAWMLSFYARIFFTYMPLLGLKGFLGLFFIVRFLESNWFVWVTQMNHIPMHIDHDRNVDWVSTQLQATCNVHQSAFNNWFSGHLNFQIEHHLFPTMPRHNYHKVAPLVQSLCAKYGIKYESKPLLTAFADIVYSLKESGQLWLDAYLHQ
Experimental: Delta-5-Desaturase Inhibitory Action In Vivo
The delta-5-desaturase inhibitory action of the test compound in vivo was evaluated by the following method. A suspension of a test compound (3 mg/kg) in 0.5% methylcellulose was administered by gavage every morning at 10 mL/kg for 4 days to 7- to 9-week-old male normal mice (C57BL/6J, CLEA Japan, Inc.) acclimated with a normal chow feed (CE-2, CLEA Japan, Inc.) in individual cages. In the next morning of the final administration, the mice were anesthetized, and the liver was isolated. Total lipid was extracted from about 40 mg of a liver sample with hexane-propanol solution, and a phospholipid fraction was extracted using a solid phase extraction column (Sep-Pak Vac NH2, Waters) and labeled with an esterified long-chain and short-chain fatty acid labeling reagent (YMC). The arachidonic acid and dihomo-γ-linolenic acid contents of the sample after labeling were measured by high performance liquid chromatography (Agilent 1200, Agilent Technologies). The arachidonic acid (AA) content was divided by the content of dihomo-γ-linolenic acid (DGLA) to obtain an AA/DGLA ratio. The decrease rate of the test compound administration group was calculated based on the AA/DGLA ratio of the solvent administration group as 100%, which was used as an index of the liver delta-5-desaturase inhibitory action in vivo.

delta-5-desaturase [4] = biological target: T3, delta-5-desaturase (Homo sapiens, UniProt O60427); assay: Delta-5-desaturase inhibitory activity using HepG2 cell; type: cell-based; conditions: test compound 1 μM
T3 construct: endogenous in cells; host or cells: HepG2
Experimental: Delta-5-Desaturase Inhibitory Activity Using HepG2 Cell
HepG2 was plated on a 96-well plate at 1×10^5 cells/well, and cultured overnight in DMEM (Dulbecco's modified Eagle medium) containing 10% FBS (fetal bovine serum). After washing (200 μL×2) with PBS (phosphate buffered saline), 40 μL of a reaction medium (DMEM, penicillin/streptomycin, 0.3% BSA) containing the test compound was added, and the mixture was preincubated in a CO2 incubator at 37° C. for 30 min. The reaction was started by adding a reaction medium (20 μL) containing 0.1 μCi [^14C]Eicosatrienoic acid, and the mixture was incubated in a CO2 incubator at 37° C. Incubation was performed for 3 hr, the cells were washed twice with 200 μL of PBS, detached with 50 μL of trypsin-EDTA and placed on a 96-deep well block. Furthermore, 20 μL of 2.5N NaOH was added, the plate was sealed and incubated overnight at 55° C. to allow saponification. The fatty acid extraction included acidifying with 10 μL of formic acid, adding chloroform:methanol (1:4), stirring, and further adding 200 μL of pure water to separate into two layers. The operation after development with TLC followed the method of detection system using TLC in a system using a rat liver microsome. A delta-5-desaturase inhibitory rate (%) of 1 μM test compound was determined.

T1 sequence (Q920R3 whole entry): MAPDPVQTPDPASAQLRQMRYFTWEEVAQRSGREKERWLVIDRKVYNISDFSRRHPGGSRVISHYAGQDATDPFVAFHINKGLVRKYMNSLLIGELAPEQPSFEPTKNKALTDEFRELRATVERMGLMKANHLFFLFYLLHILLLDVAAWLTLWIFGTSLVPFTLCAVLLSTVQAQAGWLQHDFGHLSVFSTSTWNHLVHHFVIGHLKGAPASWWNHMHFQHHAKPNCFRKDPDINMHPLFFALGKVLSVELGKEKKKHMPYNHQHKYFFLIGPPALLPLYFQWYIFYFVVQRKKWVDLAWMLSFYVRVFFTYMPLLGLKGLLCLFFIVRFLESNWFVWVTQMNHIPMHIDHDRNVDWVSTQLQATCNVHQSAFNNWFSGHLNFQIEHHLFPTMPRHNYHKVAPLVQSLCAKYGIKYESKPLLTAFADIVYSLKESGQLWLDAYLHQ
T3 sequence (O60427 whole entry): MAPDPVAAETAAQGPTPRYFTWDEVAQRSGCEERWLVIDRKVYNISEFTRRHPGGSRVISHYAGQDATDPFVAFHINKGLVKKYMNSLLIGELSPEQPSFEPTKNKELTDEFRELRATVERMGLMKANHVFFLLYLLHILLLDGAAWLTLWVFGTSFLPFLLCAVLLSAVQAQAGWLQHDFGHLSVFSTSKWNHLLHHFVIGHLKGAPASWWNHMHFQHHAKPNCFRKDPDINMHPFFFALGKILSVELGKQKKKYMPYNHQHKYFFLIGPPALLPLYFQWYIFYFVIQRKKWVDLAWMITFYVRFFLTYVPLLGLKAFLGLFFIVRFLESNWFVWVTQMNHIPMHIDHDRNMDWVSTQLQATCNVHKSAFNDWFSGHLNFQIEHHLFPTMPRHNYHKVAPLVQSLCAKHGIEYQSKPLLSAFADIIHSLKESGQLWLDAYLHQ

Structure (SMILES)	delta-5-desaturase inhibitory activity (at liver microsome) Inhibitory activity (%) at 10 μM (delta-5-desaturase [1]; sodium salt, 10 µM) [%]	Binding inhibitory activity against compound bind to delta-5-desaturase Binding inhibition rate (%) at 10 μM (delta-5-desaturase [2]; 3 nM tritiated ligand of Reference Example 1, sodium salt) [%]	lowering rate (%) of arachidonic acid/dihomo-γ-linolenic acid ratio (delta-5-desaturase [3]) [%]	inhibition at 10 µM (delta-5-desaturase [1]) [%]	inhibition at 10 µM (delta-5-desaturase [2]) [%]	inhibition at 1 µM (delta-5-desaturase [4]) [%]
CCOc1nc2[nH]c(=O)ccc2c(=O)n1-c1ccc(OCC(F)(F)F)cc1 [Example 10, 2-ethoxy-3-[4-(2,2,2-trifluoroethoxy)phenyl]pyrido[2,3-d]pyrimidine-4,7(3H,8H)-dione sodium salt]	98	94	71			
CCSc1nc2[nH]c(=O)cnc2c(=O)n1-c1ccc(OCC(F)(F)F)cc1 [Example 38, 2-(ethylsulfanyl)-3-[4-(2,2,2-trifluoroethoxy)phenyl]pteridine-4,7(3H,8H)-dione]				95	91	76
CCSc1nc2c(c(=O)n1-c1ccc(OCC(F)(F)F)cc1)CCNC2=O [Example 28, 2-(ethylsulfanyl)-3-[4-(2,2,2-trifluoroethoxy)phenyl]-3,5,6,7-tetrahydropyrido[3,4-d]pyrimidine-4,8-dione]				92	92	89
COc1ccc2c(=O)n(-c3ccc(OCC(F)(F)F)cc3)c(SC)nc2n1 [Example 2, 7-methoxy-2-(methylsulfanyl)-3-[4-(2,2,2-trifluoroethoxy)phenyl]pyrido[2,3-d]pyrimidin-4(3H)-one]				102	94	107
CCSc1nc2c(ccc(=O)n2C)c(=O)n1-c1ccc(OCC(F)(F)F)cc1 [Example 8, 2-(ethylsulfanyl)-8-methyl-3-[4-(2,2,2-trifluoroethoxy)phenyl]pyrido[2,3-d]pyrimidine-4,7(3H,8H)-dione]				99	96	103
CCSc1nc2c(=O)[nH]ccc2c(=O)n1-c1ccc(OCC(F)(F)F)cc1 [Example 29, 2-(ethylsulfanyl)-3-[4-(2,2,2-trifluoroethoxy)phenyl]-3,7-dihydropyrido[3,4-d]pyrimidine-4,8-dione]				99	97	96
CCSc1nc2[nH]c(=O)ccc2c(=O)n1-c1ccc(OCC(F)(F)F)cc1 [Example 6, 2-(ethylsulfanyl)-3-[4-(2,2,2-trifluoroethoxy)phenyl]pyrido[2,3-d]pyrimidine-4,7(3H,8H)-dione]				99	97	101
CCCSc1nc2c(=O)[nH]ccc2c(=O)n1-c1ccc(OCC(F)(F)F)cc1 [Example 30, 2-(propylsulfanyl)-3-[4-(2,2,2-trifluoroethoxy)phenyl]-3,7-dihydropyrido[3,4-d]pyrimidine-4,8-dione]				97	97	96
COc1ccc2c(=O)n(-c3ccc(OCC(F)(F)F)cc3)c(OCC(F)(F)F)nc2n1 [Example 5, 7-methoxy-2-(2,2,2-trifluoroethoxy)-3-[4-(2,2,2-trifluoroethoxy)phenyl]pyrido[2,3-d]pyrimidin-4(3H)-one]				101	93	95

Next, values leading:

delta-5-desaturase inhibitory activity (at liver microsome) Inhibitory activity (%) at 10 μM (delta-5-desaturase [1]; sodium salt, 10 µM) [%]	Binding inhibitory activity against compound bind to delta-5-desaturase Binding inhibition rate (%) at 10 μM (delta-5-desaturase [2]; 3 nM tritiated ligand of Reference Example 1, sodium salt) [%]	lowering rate (%) of arachidonic acid/dihomo-γ-linolenic acid ratio (delta-5-desaturase [3]) [%]	inhibition at 10 µM (delta-5-desaturase [1]) [%]	inhibition at 10 µM (delta-5-desaturase [2]) [%]	inhibition at 1 µM (delta-5-desaturase [4]) [%]	Structure (SMILES)
			91	89	91	COCCOc1nccc2c(=O)n(-c3ccc(OCC(F)(F)F)cc3)c(OCCOC)nc12 [Example 35, 2,8-bis(2-methoxyethoxy)-3-[4-(2,2,2-trifluoroethoxy)phenyl]pyrido[3,4-d]pyrimidin-4(3H)-one]
			100	95	98	O=c1ccc2c(=O)n(-c3ccc(OCC(F)(F)F)cc3)c(OCC(F)(F)F)nc2[nH]1 [Example 11, 2-(2,2,2-trifluoroethoxy)-3-[4-(2,2,2-trifluoroethoxy)phenyl]pyrido[2,3-d]pyrimidine-4,7(3H,8H)-dione]
			97	89	88	CS(=O)(=O)CCCOc1nc2[nH]c(=O)ccc2c(=O)n1-c1ccc(OCC(F)(F)F)cc1 [Example 13, 2-[3-(methylsulfonyl)propoxy]-3-[4-(2,2,2-trifluoroethoxy)phenyl]pyrido[2,3-d]pyrimidine-4,7(3H,8H)-dione]
			101	96	93	CCSc1nc2c(OC)nccc2c(=O)n1-c1ccc(OCC(F)(F)F)cc1 [Example 33, 2-(ethylsulfanyl)-8-methoxy-3-[4-(2,2,2-trifluoroethoxy)phenyl]pyrido[3,4-d]pyrimidin-4(3H)-one]

Reference: patent publication US9023858B2, “Substituted pyrido[2,3-d]pyrimidines as delta-5-desaturase inhibitors” (Takeda Pharmaceutical Company Limited, priority 2010, dated 2015)
